Laboratory results published in ChEMBL document CHEMBL5032530, “Discovery of Benzocyclic Sulfone Derivatives as Potent CXCR2 Antagonists for Cancer Immunotherapy” (J Med Chem, 2021).

Key:
[1] = Cmax in ICR mouse at 3 mg/kg, iv measured upto 48 hrs; assay type: ADME, organism-based; set-up: route intravenous, dose 3 mg/kg, time <=48; conditions: in vivo
[2] = biological target: C-X-C chemokine receptor type 6 (Homo sapiens) (UniProt O00574); assay: Agonist activity against CXCR6 (unknown origin) assessed as induction of beta-arrestin 2 recruitment at 10 microM by beta arrestin assay relative to control; assay type: functional
Sequence of C-X-C chemokine receptor type 6 (Homo sapiens) (O00574 whole entry, looked up): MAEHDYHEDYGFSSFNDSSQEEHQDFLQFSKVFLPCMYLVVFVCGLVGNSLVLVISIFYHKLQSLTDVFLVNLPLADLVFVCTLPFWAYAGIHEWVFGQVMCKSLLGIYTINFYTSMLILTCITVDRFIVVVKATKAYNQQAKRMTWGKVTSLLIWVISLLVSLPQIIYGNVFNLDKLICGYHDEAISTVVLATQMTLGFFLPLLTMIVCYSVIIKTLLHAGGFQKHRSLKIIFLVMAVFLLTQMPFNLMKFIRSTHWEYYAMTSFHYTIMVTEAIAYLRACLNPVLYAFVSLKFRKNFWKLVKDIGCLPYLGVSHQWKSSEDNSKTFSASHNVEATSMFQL

[3] = AUC (0 to infinity) in ICR mouse at 30 mg/kg, po measured upto 48 hrs; assay type: ADME, organism-based; set-up: route oral, dose 30 mg/kg, time <=48; conditions: ICR, in vivo
Mus musculus = assay: Effect on granulocytic MDSCs level in mouse xenografted with […] cells at 10 to 30 mg/kg, po bid measured after 15 days by immunohistochemical analysis; assay type: ADME, organism-based; conditions: in vivo, 360 h, dose 10-30 mg/kg, time 15 day
[4] = biological target: C-X-C chemokine receptor type 4 (Homo sapiens) (UniProt P61073); assay: Agonist activity against CXCR4 (unknown origin) assessed as induction of beta-arrestin 2 recruitment at 10 microM by beta arrestin assay relative to control; assay type: functional
Sequence of C-X-C chemokine receptor type 4 (Homo sapiens) (P61073 whole entry): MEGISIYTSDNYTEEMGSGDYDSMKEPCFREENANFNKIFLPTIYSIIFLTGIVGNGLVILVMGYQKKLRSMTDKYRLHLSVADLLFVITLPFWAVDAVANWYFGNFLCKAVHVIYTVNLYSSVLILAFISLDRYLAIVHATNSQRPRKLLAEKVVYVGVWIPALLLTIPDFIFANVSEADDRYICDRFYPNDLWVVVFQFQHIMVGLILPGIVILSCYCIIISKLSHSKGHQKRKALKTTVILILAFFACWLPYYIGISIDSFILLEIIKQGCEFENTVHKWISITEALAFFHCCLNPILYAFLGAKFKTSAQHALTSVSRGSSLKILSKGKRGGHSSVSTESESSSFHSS

[5] = Half life in ICR mouse at 3 mg/kg, iv measured upto 48 hrs; assay type: ADME, organism-based; conditions: in vivo
[6] = Apparent volume of distribution in ICR mouse at 3 mg/kg, iv measured upto 48 hrs; assay type: ADME, organism-based; conditions: in vivo, read-out: Vz
[7] = biological target: C-C chemokine receptor type 3 (Homo sapiens) (UniProt P51677); assay: Antagonist activity against CCR3 (unknown origin) assessed as inhibition of beta-arrestin 2 recruitment at 10 microM by beta arrestin assay relative to control; assay type: functional; set-up: scale not given: the % may be the effect or the level left
Sequence of C-C chemokine receptor type 3 (Homo sapiens) (P51677 whole entry): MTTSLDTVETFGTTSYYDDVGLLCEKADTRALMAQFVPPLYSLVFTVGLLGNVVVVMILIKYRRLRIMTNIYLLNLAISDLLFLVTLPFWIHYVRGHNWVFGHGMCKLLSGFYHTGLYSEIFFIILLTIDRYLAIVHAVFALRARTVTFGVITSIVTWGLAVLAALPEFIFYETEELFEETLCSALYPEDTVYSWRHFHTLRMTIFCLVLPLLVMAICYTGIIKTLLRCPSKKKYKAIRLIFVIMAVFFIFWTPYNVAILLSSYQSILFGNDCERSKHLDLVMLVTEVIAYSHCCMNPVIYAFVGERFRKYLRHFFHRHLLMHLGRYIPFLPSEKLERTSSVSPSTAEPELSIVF

[8] = biological target: C-C chemokine receptor type 2 (Homo sapiens) (UniProt P41597); assay: Antagonist activity against CCR2 (unknown origin) assessed as inhibition of beta-arrestin 2 recruitment at 10 microM by beta arrestin assay relative to control; assay type: functional; set-up: scale not given: the % may be the effect or the level left
Sequence of C-C chemokine receptor type 2 (Homo sapiens) (P41597 whole entry, looked up): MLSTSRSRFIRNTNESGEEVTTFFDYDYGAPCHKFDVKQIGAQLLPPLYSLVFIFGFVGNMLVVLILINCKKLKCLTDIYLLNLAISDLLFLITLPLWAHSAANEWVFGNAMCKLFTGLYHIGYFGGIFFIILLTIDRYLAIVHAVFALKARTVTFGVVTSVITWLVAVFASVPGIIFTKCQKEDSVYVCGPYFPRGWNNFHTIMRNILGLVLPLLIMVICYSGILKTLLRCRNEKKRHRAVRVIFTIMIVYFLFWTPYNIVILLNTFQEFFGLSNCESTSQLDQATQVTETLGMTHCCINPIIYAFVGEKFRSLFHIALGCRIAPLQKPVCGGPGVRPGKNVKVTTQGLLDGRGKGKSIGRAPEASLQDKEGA

[9] = biological target: C-C chemokine receptor type 6 (Homo sapiens) (UniProt P51684); assay: Antagonist activity against CCR6 (unknown origin) assessed as inhibition of beta-arrestin 2 recruitment at 10 microM by beta arrestin assay relative to control; assay type: functional; set-up: scale not given: the % may be the effect or the level left
Sequence of C-C chemokine receptor type 6 (Homo sapiens) (P51684 whole entry): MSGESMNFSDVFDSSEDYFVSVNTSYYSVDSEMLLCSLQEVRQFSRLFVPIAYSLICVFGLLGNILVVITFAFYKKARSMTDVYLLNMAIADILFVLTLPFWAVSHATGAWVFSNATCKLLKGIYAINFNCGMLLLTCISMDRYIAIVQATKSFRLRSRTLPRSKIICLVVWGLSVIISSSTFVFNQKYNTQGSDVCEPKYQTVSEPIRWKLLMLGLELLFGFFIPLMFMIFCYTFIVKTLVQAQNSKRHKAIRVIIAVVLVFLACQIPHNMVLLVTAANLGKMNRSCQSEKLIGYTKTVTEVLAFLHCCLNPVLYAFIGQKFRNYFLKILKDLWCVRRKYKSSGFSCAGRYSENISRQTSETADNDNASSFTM

[10] = biological target: C-C chemokine receptor type 8 (Homo sapiens) (UniProt P51685); assay: Antagonist activity against CCR8 (unknown origin) assessed as inhibition of beta-arrestin 2 recruitment at 10 microM by beta arrestin assay relative to control; assay type: functional; set-up: scale not given: the % may be the effect or the level left
Sequence of C-C chemokine receptor type 8 (Homo sapiens) (P51685 whole entry): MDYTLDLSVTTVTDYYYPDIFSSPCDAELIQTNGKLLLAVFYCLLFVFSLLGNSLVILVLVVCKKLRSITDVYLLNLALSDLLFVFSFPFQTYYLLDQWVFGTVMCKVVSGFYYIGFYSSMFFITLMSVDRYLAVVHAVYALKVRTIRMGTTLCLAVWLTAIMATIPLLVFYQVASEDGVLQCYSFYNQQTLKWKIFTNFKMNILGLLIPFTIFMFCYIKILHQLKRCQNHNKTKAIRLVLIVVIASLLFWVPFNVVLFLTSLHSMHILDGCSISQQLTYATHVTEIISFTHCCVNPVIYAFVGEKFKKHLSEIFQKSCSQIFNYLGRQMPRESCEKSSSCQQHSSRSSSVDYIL

[11] = biological target: Chemerin-like receptor 1 (Homo sapiens) (UniProt Q99788); assay: Antagonist activity against CMKLR1 (unknown origin) assessed as inhibition of beta-arrestin 2 recruitment at 10 microM by beta arrestin assay relative to control; assay type: functional; set-up: scale not given: the % may be the effect or the level left
Sequence of Chemerin-like receptor 1 (Homo sapiens) (Q99788 whole entry): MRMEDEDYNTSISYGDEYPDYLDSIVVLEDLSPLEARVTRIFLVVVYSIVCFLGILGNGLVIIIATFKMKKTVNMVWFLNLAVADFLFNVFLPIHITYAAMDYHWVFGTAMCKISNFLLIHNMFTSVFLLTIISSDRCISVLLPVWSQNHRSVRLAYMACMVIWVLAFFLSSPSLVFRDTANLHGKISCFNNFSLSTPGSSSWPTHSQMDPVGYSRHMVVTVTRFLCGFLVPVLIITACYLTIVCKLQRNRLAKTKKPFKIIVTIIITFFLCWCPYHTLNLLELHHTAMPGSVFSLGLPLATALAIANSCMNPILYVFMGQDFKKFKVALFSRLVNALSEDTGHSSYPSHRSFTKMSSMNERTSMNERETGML

[12] = AUC (0 to t) in ICR mouse at 3 mg/kg, iv measured upto 48 hrs; assay type: ADME, organism-based; set-up: route intravenous, dose 3 mg/kg, time <=48; conditions: in vivo

Cmax [1]: 873 ng/mL | Activity [2]: < 10% | AUC(0-inf) [3]: 229 ng·h/mL | Activity [4]: < 10% | half-life [5]: 4.11 h | Vd [6]: 49 L/kg | Activity [7]: 13% | Activity [8]: 17% | Activity [9]: < 10% | Activity [10]: < 10% | Activity [11]: < 10% | AUC(0-t) at 48 h [12]: 357 ng·h/mL
SMILES: Cc1c(F)cccc1NC(=O)Nc1ccc2c(c1O)S(=O)(=O)CCC2
Activity (Mus musculus): Non-Toxic
